# Source: patent US20240208907A1, “GPR52 MODULATORS AND METHODS OF USE” (Neurocrine Biosciences, Inc., priority 2021, published 2024)
# Molecular target: T1, recombinant human GPR52 (Homo sapiens, UniProt Q9Y2T5)
# T1 construct: expressed in transfected cells
# Assay: GPR52 activity: TR-FRET cAMP assay (LANCE Ultra cAMP Kit)
# Assay type: cell-based
# Details: Flp-In-CHO cells stably expressing recombinant human GPR52; cAMP production, normalized to positive control
# Procedure: TR-FRET cAMP assays were performed using commercially available assay kits (LANCE™ Ultra cAMP Kit). Controls and compounds were solubilized in DMSO using ½ log dilution to generate duplicate 10-point dose response curves in 384-well polypropylene compound plates. Sixty nanoliters of the diluted compounds were transferred into 384-well NBS assay plates and further diluted to 1× with the addition of 2000 cells per well. Flp-In™-CHO cells that stably express recombinant human GPR52.
# Cells were harvested with cell stripper and resuspended in Stimulation Buffer (5 mM HEPES, 0.1% bovine serum albumin (BSA), 0.5 mM IBMX, pH 7.4). After thirty minutes incubation at room temperature, detection reagents were added to each well. Plates were then incubated for 30 minutes at room temperature. The LANCE™ Ultra cAMP assay uses time-resolved fluorescence resonance energy transfer (TR-FRET) to detect cAMP production; this signal was quantified using a Pherastar multi-mode plate reader.
# Dose-response curves were generated from the fluorescence counts normalized to the positive control. E EC50 values were obtained using a nonlinear regression curve-fitting program.
# T1 sequence (Q9Y2T5 whole entry): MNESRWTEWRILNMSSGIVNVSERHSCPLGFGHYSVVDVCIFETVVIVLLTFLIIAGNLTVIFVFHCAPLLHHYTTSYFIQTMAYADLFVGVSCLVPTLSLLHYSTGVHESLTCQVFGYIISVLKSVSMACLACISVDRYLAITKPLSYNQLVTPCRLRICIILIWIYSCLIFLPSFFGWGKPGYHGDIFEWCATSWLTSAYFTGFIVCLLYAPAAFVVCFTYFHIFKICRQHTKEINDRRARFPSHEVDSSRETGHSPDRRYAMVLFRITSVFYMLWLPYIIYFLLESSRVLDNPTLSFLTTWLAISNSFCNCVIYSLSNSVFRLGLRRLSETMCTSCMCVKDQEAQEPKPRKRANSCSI
row,SMILES,EC50
1,"COc1ccc(Cc2ccnc(-c3cccc(C(N)=O)c3)c2)cc1F [Compound 29, 3-{4-[(3-fluoro-4-methoxyphenyl)methyl]pyridin-2-yl}benzamide]",101 to 1000 nM
2,"NC(=O)c1ccc(-c2cc(Cc3cc(C(F)(F)F)ccc3F)ccn2)cc1 [Compound 39, 4-(4-{[2-fluoro-5-(trifluoromethyl)phenyl]methyl}pyridin-2-yl)benzamide]",101 to 1000 nM
3,"Cc1cc(-c2cc(C(O)c3cccc(C(F)(F)F)c3)ccn2)ccc1C(N)=O (centres unmarked) [Compound 43, 4-(4-{hydroxy [3-(trifluoromethyl)phenyl]methyl}pyridin-2-yl)-2-methylbenzamide]",> 1000 nM
4,"NC(=O)c1ccc(-c2cc(Cc3cccc(OC(F)(F)F)c3)ccn2)cc1 [Compound 26, 4-(4-{[3-(trifluoromethoxy)phenyl]methyl}pyridin-2-yl)benzamide]",101 to 1000 nM
5,"Cc1cc(-c2cc(Cc3cccc(C(F)(F)F)c3)ccn2)ccc1C(=O)NCCO [Compound 36, N-(2-hydroxyethyl)-2-methyl-4-(4-{[3-(trifluoromethyl)phenyl]methyl}pyridin-2-yl)benzamide]",25 to 100 nM

# Other lines, results leading:
row,EC50,SMILES
1,25 to 100 nM,"NC(=O)c1ccc(-c2cc(Cc3cc(F)cc(C(F)(F)F)c3)ccn2)cc1 [Compound 14, 4-(4-{[3-fluoro-5-(trifluoromethyl)phenyl]methyl}pyridin-2-yl)benzamide]"
2,< 25 nM,"COc1cc(Cc2ccnc(-c3ccc(C(N)=O)c(C)c3)c2)cc(F)c1F [Compound 4, 4-{4-[(3,4-difluoro-5-methoxyphenyl)methyl]pyridin-2-yl}-2-methylbenzamide]"
3,25 to 100 nM,"NC(=O)Cc1cccc(-c2cc(Cc3cccc(C(F)(F)F)c3)ccn2)c1 [Compound 16, 2-[3-(4-{[3-(trifluoromethyl)phenyl]methyl}pyridin-2-yl)phenyl]acetamide]"
4,25 to 100 nM,"Cc1cc(-c2cc(Cc3cc(F)c(F)c(C#N)c3)ccn2)ccc1C(N)=O [Compound 7, 4-{4-[(3-cyano-4,5-difluorophenyl)methyl]pyridin-2-yl}-2-methylbenzamide]"
5,< 25 nM,"N#Cc1cc(Cc2ccnc(-c3ccc(C(N)=O)c(C(F)(F)F)c3)c2)cc(F)c1F [Compound 6, 4-{4-[(3-cyano-4,5-difluorophenyl)methyl]pyridin-2-yl}-2-(trifluoromethyl)benzamide]"
6,25 to 100 nM,"Cc1cc(-c2cc(Cc3cc(F)c(F)c(C#N)c3)ccn2)cc(F)c1C(N)=O [Compound 15, 4-{4-[(3-cyano-4,5-difluorophenyl)methyl]pyridin-2-yl}-2-fluoro-6-methylbenzamide]"
